From US20220354764A1, “METHODS FOR PROMOTING HAIR GROWTH” (Follica, Inc., priority 2018, published 2022)

Legend:
[1] = test system: adult males with androgenetic alopecia (AGA); experiment: Hair count by macrophotography after needling device treatment plus minoxidil (Example 1); format: in vivo, human; conditions: needling device plus 2%/5% MTS, 12 weeks; comparison: 12% increase in Olsen 2002 and 2007
Text: A macrophotography procedure as referred to herein includes identifying the designated photography site, clipping hair within targeted photography site to a length of 1 mm, and creating a needlestick tattoo in the center of the targeted photography site for future orientation (pressure was applied until any bleeding stops), mapping the position of the tattoo, and recording the measurements on the provided documentation. The procedure further includes using the tattoo as a reference point take the first Baseline photograph without the contact plate, and again, using the tattoo as a reference point, performing remaining Baseline photography with the contact plate. From the identified designated photography site, the width of each hair is determined using an electronic caliber measurement. All hairs greater than […] are classified as terminal hairs. […]
A macrophotography procedure as described above was carried out for each subject, using a single, circular 1.9 cm^2 site in the leading edge of an actively balding area of the vertex as the designated photography site. Total Area Hair Count (TAHC), Target Area Hair Width (TAHW) and Target Area Hair Density/Darkness (TAHD) were assessed via quantitative image analysis to determine non-vellus hair count (primary and secondary endpoint) and total hair count (non-vellus and vellus hair, secondary endpoint). […]

[2] = Minoxidil blood serum concentration after needling device treatment plus 2%/5% MTS (Example 1); format: in vivo, human
Description: A multicenter randomized study was conducted to assess the safety and efficacy of treatment methods using a needling device in conjunction with minoxidil in adult males with androgenetic alopecia (AGA). The study involved 14 subjects, male, age 18-40 years, with a diagnosis of androgenetic alopecia. Data for 46 additional subjects is being gathered. The subjects were randomized and then completed treatment across 12 weeks (total of 3, 6, or 12 treatments with the needling device per randomization assignment, n=20 per arm). A final evaluation was conducted on Day 85 with no additional follow up required.
On Day 0, subjects were randomized to receive treatment with the needling device on a weekly (12 treatments), bi-weekly (6 treatments), or monthly (once every 4 weeks, for 3 total treatments) basis for 12 weeks, in a 1:1:1 ratio according to a centrally maintained randomization table. Treatment of the vertex (including transitional areas) with the needling device was initiated on Day 1.
Subjects in the monthly arm received needling device treatment once every 4 weeks, for 3 procedures total (e.g., needling device treatment on Days 1, 29, 57). Subjects in the bi-weekly arm received needling device treatment once every 2 weeks, for 6 procedures total (e.g., needling device treatment on Days 1, 15, 29, 43, 57, and 71). Subjects in the weekly arm received needling device treatment once every week, for 12 procedures total (e.g., needling device treatment on Days 1, 8, 15, 22, 29, 36, 43, 50, 57, 64, 71, and 78).
During needling treatments, the translation speed of the device, which is the speed at which the needling device was glided over the affected skin area, was 2 cm/second, while keeping the device perpendicular to the surface to help achieve a needle strike of 0.8 mm (+/−0.2 mm) micro-needling depth. The device needle array has 12 needles and the number of array oscillations per second was set at 120. The treatment width was 0.9 cm. Two overlapping passes were made in vertical and horizontal directions. As a result, 1600 needle strikes per cm^2 were performed. The micro-needling device was glided across the affected area of the skin such that each pass across the area of skin aligned with the prior pass across the skin, without gaps of skin between the passes, in a “mow the lawn” approach. Each pass of the micro-needling device started with a gliding start and a smooth retraction of the device from the skin area following each pass. The micro-needling device was applied to the skin area with consistent, light pressure, allowing the device to glide along the skin. The configuration of needles in the needle array consists of 2 offset rows of 6 microneedles.
A post-treatment visit was required following each subject's first treatment with the needling device across all study arms to confirm wound closure. The post-treatment visit was performed 24-36 hours following the first treatment with the needling device. If adequate wound closure and skin normality was not achieved, the subject would return for a second post-treatment visit 24-36 hours following the first post-treatment visit. Once adequate wound closure was confirmed, subjects were provided study drug to be applied in accordance with the instructions provided herein (vertex, including transitional areas). The very first application of study drug was performed in-clinic during the first post-treatment visit in which wound closure is confirmed. […]

For `Nc1cc(N2CCCCC2)nc(N)[n+]1[O-]` [minoxidil], the “subjects showing an increase in non-vellus target area hair count greater than prior large minoxidil studies” value [1] was 79%, the “serum level average, Day 1” value ([2]; Day 1, needling device plus MTS regimen) was 1.29 ng/mL and the “serum level average, Day 29” value ([2]; Day 29, needling device plus MTS regimen) was 0.99 ng/mL. The “serum level average, Day 57” value ([2]; Day 57, needling device plus MTS regimen) was 0.79 ng/mL, the “serum level average, Day 85” value ([2]; Day 85, final study visit, needling device plus MTS regimen) was 0.65 ng/mL and the “maximum serum level recorded in the study” value ([2]; individual maximum, needling device plus 2%/5% MTS step-up) was 5.5 ng/mL.
